≈ marks a conversion by molar mass, not a printed value.
Test system: not listed separately
Assay: Inhibition of Escherichia coli HS294 ACCase
Details: not given; call rule not given here

Row | IC50 | SMILES
1 | Not Active | COc1cc(Cc2cnc(N)nc2N)cc(OC)c1OC [TRIMETHOPRIM]

Same assay, conditions: read-out: IC50

Row | IC50 [nM] | SMILES
2 | 28000 | Cc1ccccc1CNc1nc2cc(C(N)=O)ccc2n1CC1CCCCC1
3 | 2100 | NC(=O)c1cc(S(=O)(=O)NCc2ccc(Cl)cc2)c2c(c1)nc(NCc1ccccc1Cl)n2C[C@H]1CCCCC[C@H]1O
4 | > 20000 | CNC(=O)c1ccc2c(c1)nc(NCc1ccccc1Cl)n2CC1CCCCC1
5 | 700 | CC(C)(CO)Cn1c(NCc2ccccc2Cl)nc2cc(C(N)=O)ccc21
6 | 16900 | NC(=O)c1ccc2c(c1)nc(NCc1ccccc1F)n2CC1CCCCC1
7 | 143000 | NC(=O)c1ccc2c(c1)nc(NCc1ccccc1Br)n2CC1CCCCC1
8 | 144000 | NC(=O)c1ccc2c(c1)nc(NCc1ccccc1C(F)(F)F)n2CC1CCCCC1
9 | 160 | NC(=O)c1ccc2c(n1)nc(NCc1ccccc1Cl)n2CC1CCCCC1
10 | 270 | C[C@H](O)Cn1c(NCc2ccccc2Cl)nc2nc(C(N)=O)ccc21
11 | 20 | CC(C)(CO)Cn1c(NCc2ccccc2Cl)nc2nc(C(N)=O)ccc21
12 | 190 | NC(=O)c1ccc2c(n1)nc(NCc1ccccc1Cl)n2CCCO
13 | 1600 | NC(=O)c1cc(Cl)c2c(c1)nc(NCc1ccccc1Cl)n2CC1CCCCC1
14 | 90 | NC(=O)c1cc([N+](=O)[O-])c2c(c1)nc(NCc1ccccc1Cl)n2[C@H]1CCc2ccccc21
15 | 3500 | Cn1c(NCc2ccccc2Cl)nc2cc(C(N)=O)cc([N+](=O)[O-])c21
16 | 130 | NC(=O)c1ccc2c(n1)nc(NCc1ccccc1Cl)n2C1CCCCC1
17 | 2060 | C[C@@H](c1ccccc1)n1c(NCc2ccccc2Cl)nc2nc(C(N)=O)ccc21
18 | 170 | NC(=O)c1ccc2c(n1)nc(NCc1ccccc1Cl)n2Cc1ccccc1
19 | 5000 | NC(=O)c1cc(N)c2c(c1)nc(NCc1ccccc1Cl)n2C[C@H]1CCCCC[C@H]1O
20 | 50000 | Cn1c(NCc2ccccc2Cl)nc2cc(C(N)=O)cc(N)c21
21 | 10 | NC(=O)c1cc([N+](=O)[O-])c2c(c1)nc(NCc1ccccc1Cl)n2C[C@H]1CCCCC[C@H]1O
22 | 800 | CC(C)CCNS(=O)(=O)c1cc(C(N)=O)cc2nc(NCc3ccccc3Cl)n(C[C@H]3CCCCC[C@H]3O)c12
23 | 130 | NC(=O)c1cc(Br)c2c(c1)nc(NCc1ccccc1Cl)n2C[C@H]1CCCCC[C@H]1O
24 | 170 | CSc1cc(C(N)=O)cc2nc(NCc3ccccc3Cl)n(C[C@H]3CCCCC[C@H]3O)c12
25 | 260 | C[S+]([O-])c1cc(C(N)=O)cc2nc(NCc3ccccc3Cl)n(C[C@H]3CCCCC[C@H]3O)c12 (some centres undefined)
26 | 41000 | C[C@H](Nc1nc2cc(C(N)=O)ccc2n1CC1CCCCC1)c1ccccc1
27 | 3010 | NC(=O)c1ccc2c(n1)nc(NCc1ccccc1Cl)n2CC(O)COc1ccccc1 (centres undefined)

Row | IC50 [nM] | SMILES
28 | 2750 | NC(=O)c1ccc2c(n1)nc(NCc1ccccc1Cl)n2Cc1ccc2c(c1)OCCO2
29 | 700 | NC(=O)c1cc(S(N)(=O)=O)c2c(c1)nc(NCc1ccccc1Cl)n2C[C@H]1CCCCC[C@H]1O
30 | 380 | CNS(=O)(=O)c1cc(C(N)=O)cc2nc(NCc3ccccc3Cl)n(C[C@H]3CCCCC[C@H]3O)c12
31 | 40000 | NC(=O)c1ccc2c(n1)nc(NCc1ccccc1Cl)n2Cc1cccc(OC(F)(F)F)c1
32 | 350 | CC(C)(C)OCCCn1c(NCc2ccccc2Cl)nc2nc(C(N)=O)ccc21
33 | 241000 | NC(=O)c1ccc2c(c1)nc(NCc1c(Cl)cccc1Cl)n2CC1CCCCC1
34 | 40000 | NC(=O)c1ccc2c(c1)nc(NCc1cccc(Cl)c1)n2CC1CCCCC1
35 | 63000 | NC(=O)c1ccc2c(c1)nc(NCc1ccc(Cl)cc1)n2CC1CCCCC1
36 | 171000 | NC(=O)c1ccc2c(c1)nc(NCc1cccc3ccccc13)n2CC1CCCCC1
37 | 60 | CS(=O)(=O)c1cc(C(N)=O)cc2nc(NCc3ccccc3Cl)n(C[C@H]3CCCCC[C@H]3O)c12
38 | 2840 | COc1ccccc1Cn1c(NCc2ccccc2Cl)nc2nc(C(N)=O)ccc21
39 | 300 | NC(=O)c1ccc2c(n1)nc(NCc1ccccc1Cl)n2CC1COc2ccccc2O1 (centres undefined)
40 | 100 | CC(C)S(=O)(=O)c1cc(C(N)=O)cc2nc(NCc3ccccc3Cl)n(C[C@H]3CCCCC[C@H]3O)c12
41 | 139000 | COc1ccccc1CNc1nc2cc(C(N)=O)ccc2n1CC1CCCCC1
42 | 400 | NC(=O)c1ccc2c(c1)nc(NCc1ccccc1Cl)n2CC[C@H](O)CO
43 | 500 | NC(=O)c1ccc2c(c1)nc(NCc1ccccc1Cl)n2C[C@H]1CCCCC[C@H]1O
44 | 2000 | NC(=O)c1ccc2c(c1)nc(NCc1ccccc1Cl)n2CCCO
45 | 20 | NC(=O)c1ccc2c(n1)nc(NCc1ccccc1Cl)n2[C@@H]1CCc2ccccc21
46 | 15800 | NC(=O)c1ccc2c(c1)nc(NCc1ccccc1)n2CC1CCCCC1
47 | 5000 | NC(=O)c1ccc2c(c1)nc(NCc1ccccc1Cl)n2CC1CCCCC1
48 | 700 | NC(=O)c1ccc2c(c1)nc(NCc1ccccc1Cl)n2[C@@H]1CCc2ccccc21
49 | 1300 | NC(=O)c1ccc2c(c1)nc(NCc1ccccc1Cl)n2[C@H]1CCCc2ccccc21
50 | 9500 | NC(=O)c1ccc2c(c1)nc(NCc1ccccc1Cl)n2CCc1c[nH]c2ccccc12
51 | 8900 | NC(=O)c1ccc2c(c1)nc(NCc1ccccc1Cl)n2CCc1ccccc1
52 | 2100 | CC1CCCCC1n1c(NCc2ccccc2Cl)nc2cc(C(N)=O)ccc21 (centres undefined)
53 | 14700 | NC(=O)c1ccc2c(c1)nc(NCc1ccccc1Cl)n2[C@H]1CCc2ccccc21

Test system: Escherichia coli
Assay: Antimicrobial activity against Escherichia coli HS294
Format: functional
Details: not given

Row | MIC [µg/mL] | SMILES
54 | 1.6 (≈ 4.13 µM) | CC(C)(CO)Cn1c(NCc2ccccc2Cl)nc2nc(C(N)=O)ccc21
55 | 0.2 (≈ 0.424 µM) | NC(=O)c1cc([N+](=O)[O-])c2c(c1)nc(NCc1ccccc1Cl)n2C[C@H]1CCCCC[C@H]1O
56 | 0.4 (≈ 0.791 µM) | NC(=O)c1cc(Br)c2c(c1)nc(NCc1ccccc1Cl)n2C[C@H]1CCCCC[C@H]1O
57 | 12.5 (≈ 25.6 µM) | C[S+]([O-])c1cc(C(N)=O)cc2nc(NCc3ccccc3Cl)n(C[C@H]3CCCCC[C@H]3O)c12 (some centres undefined)
58 | 1.6 (≈ 3.17 µM) | CS(=O)(=O)c1cc(C(N)=O)cc2nc(NCc3ccccc3Cl)n(C[C@H]3CCCCC[C@H]3O)c12
59 | 0.8 (≈ 1.91 µM) | NC(=O)c1ccc2c(n1)nc(NCc1ccccc1Cl)n2[C@@H]1CCc2ccccc21

Source: ChEMBL document CHEMBL1153699, “Discovery and optimization of antibacterial AccC inhibitors” (Bioorg Med Chem Lett, 2009)
